Test results as given in patent US20250179103A1, “6-OXODECAHYDROPYRROLO[1,2-A][1,5]DIAZOCINE AND 6-OXODECAHYDRO-4H-PYRROLO[2,1-D][1,5]THIAZOCINE DERIVATIVES AS STAT3 AND STAT6 MODULATORS FOR THE TREATMENT OF CANCER AND INFLAMMATORY CONDITIONS” (Recludix Pharma, Inc., priority 2022, published 2025).

Columns and labels:
[1] = system: pY705-STAT3 in Peripheral Blood Mononuclear Cells (PBMC); experiment: MSD-pSTAT-PBMC Assay (pSTAT3, IL-6 stimulated); type: cell-based, Human; details: Homo sapiens, compound 3 hrs, then 10 ng/mL IL-6 for 10 min
Outline: (§1)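 Human PBMCs were preincubated 3 h with compound, then stimulated 10 min with 10 ng/mL IL-6 (pY705-STAT3) or 1 ng/mL IL-4 (pY641-STAT6). Lysates were read by MSD sandwich immunoassay, capturing total STAT and detecting phospho-STAT. Signal was unstimulated-subtracted and DMSO-normalised, with variable-slope IC50 binned A–D.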

[2] = system: pY641-STAT6 in Peripheral Blood Mononuclear Cells (PBMC); experiment: MSD-pSTAT-PBMC Assay (pSTAT6, IL-4 stimulated); type: cell-based, Human; details: Homo sapiens, compound 3 hrs, then 1 ng/mL IL-4 for 10 min
Outline: as §1

SMILES | IC50 [1] [nM] | IC50 [2] [nM]
CC(=O)N1CC[C@H]2CC[C@@H](C(=O)N(C)c3ccc(-c4ccccc4)cc3)N2C(=O)[C@@H](NC(=O)c2cc3cc(C(F)(F)P(=O)(OCOC(=O)C(C)(C)C)OCOC(=O)C(C)(C)C)ccc3s2)C1 [Compound 310, ((((2-(((5S, 8S,10aR)-8-([1,1′-biphenyl]-4-yl(methyl)carbamoyl)-3-acetyl-6-oxodecahydro-pyrrolo[1,2-a][1,5]diazocin-5-yl)carbamoyl)benzo[b]thiophen-5-yl)difluoro-methyl)phos-phoryl)bis(oxy)) bis(methylene) bis(2,2-dimethylpro-panoate)] | 100 to 1000 | 100 to 1000
COC(=O)[C@@H]1CCCN1C(=O)OCOP(=O)(OCOC(=O)N1CCC[C@H]1C(=O)OC)C(F)(F)c1ccc2sc(C(=O)N[C@H]3CN(C(C)=O)CC[C@H]4CC[C@@H](C(=O)N(C)c5ccccc5)N4C3=O)cc2c1 [Compound 288, O′1,O1-(((((2-(((5S, 8S,10aR)-3-acetyl-8-(methyl (phenyl)carbamoyl)-6-oxodecahydro-pyrrolo[1,2-a][1,5]diazocin-5-yl)carbamoyl)benzo[b]thiophen-5-yl)difluoro-methyl)phos-phoryl)bis(oxy))bis (methylene)) 2,2′-dimethyl (2S,2′S)-bis (pyrrolidine-1,2-dicarboxylate)] | > 3000 | > 3000
CC(=O)N1CC[C@H]2CC[C@@H](C(=O)Nc3ccc(-c4ccccc4)cc3)N2C(=O)[C@@H](NC(=O)/C=C/c2ccc(C(F)(F)P(=O)(OCOC(=O)C(C)(C)C)OCOC(=O)C(C)(C)C)cc2)C1 [Compound 324, ((((4-((E)-3-(((5S,8S, 10aR)-8-([1,1′-biphenyl]-4-ylcarbamoyl)-3-acetyl-6-oxodecahydro-pyrrolo[1,2-a][1,5]diazocin-5-yl)amino)-3-oxoprop-1-en-1-yl)phenyl)difluoro-methyl)phosphoryl)bis(oxy))bis (methylene) bis(2,2-dimethylpro-panoate)] | > 3000 | > 3000
CC(=O)N1CC[C@H]2CC[C@@H](C(=O)N(C)c3ccccc3)N2C(=O)[C@@H](NC(=O)c2cc3cc(C(F)(F)P(=O)(OCOC(=O)OCC(C)C)OCOC(=O)OCC(C)C)ccc3s2)C1 [Compound 284, ((((2-(((5S,8S, 10aR)-3-acetyl-8-(methyl (phenyl)carbamoyl)-6-oxodecahydro-pyrrolo[1,2-a][1,5]diazocin-5-yl)carbamoyl)benzo[b]thiophen-5-yl)difluoro-methyl)phos-phoryl)bis(oxy)) bis(methylene) diisobutyl bis(carbonate)] | 100 to 1000 | ≤ 100
CC(=O)N1CC[C@H]2CC[C@@H](C(=O)N3C[C@@H](C#N)[C@H](c4ccccc4)C3)N2C(=O)[C@@H](NC(=O)c2cc3cc(C(F)(F)P(=O)(OCOC(=O)OC(C)C)OCOC(=O)OC(C)C)ccc3s2)C1 (single isomer, unassigned) [Compound 282, ((((2-(((5S,8S, 10aR)-3-acetyl-8-((3S,4R or 3R,4S)-3-cyano-4-phenyl-pyrrolidine-1-carbonyl)-6-oxodecahydro-pyrrolo[1,2-a][1,5]diazocin-5-yl)carbamoyl)benzo[b]thiophen-5-yl)difluoro-methyl)phos-phoryl)bis(oxy)) bis(methylene) diisopropyl bis(carbonate)] | 1000 to 3000 | ≤ 100
CC(=O)N1CC[C@H]2CC[C@@H](C(=O)N(C)c3ccccc3)N2C(=O)[C@@H](NC(=O)c2ccc3cc(C(F)(F)P(=O)(OCOC(=O)C(C)(C)C)OCOC(=O)C(C)(C)C)ccc3c2)C1 [Compound 322, ((((6-(((5S,8S, 10aR)-3-acetyl-8-(methyl (phenyl)carbamoyl)-6-oxodecahydro-pyrrolo[1,2-a][1,5]diazocin-5-yl)carbamoyl)naphthalen-2-yl)difluoro-methyl)phos-phoryl)bis(oxy)) bis(methylene) bis(2,2-dimethylpro-panoate)] | > 3000 | > 3000
COCCOC(=O)OCOP(=O)(OCOC(=O)OCCOC)C(F)(F)c1ccc2sc(C(=O)N[C@H]3CN(C(C)=O)CC[C@H]4CC[C@@H](C(=O)N(C)c5ccccc5)N4C3=O)cc2c1 [Compound 283, ((((2-(((5S,8S, 10aR)-3-acetyl-8-(methyl (phenyl)carbamoyl)-6-oxodecahydro-pyrrolo[1,2-a][1,5]diazocin-5-yl)carbamoyl)benzo[b]thiophen-5-yl)difluoro-methyl)phos-phoryl)bis(oxy)) bis(methylene) bis(2-methoxyethyl) bis(carbonate)] | > 3000 | 1000 to 3000
COCC(C)(C)OC(=O)OCOP(=O)(OCOC(=O)OC(C)(C)COC)C(F)(F)c1ccc2sc(C(=O)N[C@H]3CN(C(C)=O)CC[C@H]4CC[C@@H](C(=O)N(C)c5ccccc5)N4C3=O)cc2c1 [Compound 287, ((((2-(((5S, 8S,10aR)-3-acetyl-8-(methyl (phenyl)carbamoyl)-6-oxodecahydro-pyrrolo[1,2-a][1,5]diazocin-5-yl)carbamoyl)benzo[b]thiophen-5-yl)difluoro-methyl)phosphoryl)bis(oxy)) bis(methylene) bis(1-methoxy-2-methylpropan-2-yl) bis(carbonate)] | > 3000 | > 3000
CCN1CC[C@H]2CC[C@@H](C(=O)N3C[C@@H](C#N)[C@H](c4ccccc4)C3)N2C(=O)[C@@H](NC(=O)c2cc3cc(C(F)(F)P(=O)(OCOC(=O)C(C)(C)C)OCOC(=O)C(C)(C)C)ccc3s2)C1 (single isomer, unassigned) [Compound 281, ((((2-(((5S,8S, 10aR)-8-((3S,4R or 3R,4S)-3-cyano-4-phenyl-pyrrolidine-1-carbonyl)-3-ethyl-6-oxodecahydro-pyrrolo[1,2-a][1,5]diazocin-5-yl)carbamoyl)benzo[b]thiophen-5-yl)difluoro-methyl)phos-phoryl)bis(oxy)) bis(methylene) bis(2,2-dimethyl-propanoate)] | ≤ 100 | ≤ 100
CNC(=O)C[C@@H](Cc1ccc(OC)cc1)NC(=O)[C@@H]1CC[C@@H]2CCN(C(=O)c3n[nH]c4ccc(C)cc34)C[C@H](NC(=O)c3ccc4ccc(C(F)(F)P(=O)(O)O)cc4c3)C(=O)N21 [Compound 239, (difluoro(7-(((5S,8S,10aR)-8-(((R)-1-(4-methoxyphenyl)-4-(methylamino)-4-oxobutan-2-yl)carbamoyl)-3-(5-methyl-1H-indazole-3-carbonyl)-6-oxodecahydropyrrolo[1,2-a][1,5]diazocin-5-yl)carbamoyl)naphthalen-2-yl)methyl)phosphonic acid] | 100 to 1000 | 100 to 1000
CN(CC(C)(C)C#N)C(=O)[C@@H]1CC[C@@H]2CCN(CC(F)F)C[C@H](NC(=O)c3cc4cc(C(F)(F)P(=O)(OCOC(=O)C(C)(C)C)OCOC(=O)C(C)(C)C)ccc4s3)C(=O)N21 [Compound 352, ((((2-(((5S,8S,10aR)-8-((2-cyano-2-methylpropyl)(methyl)carbamoyl)-3-(2,2-difluoroethyl)-6-oxodecahydropyrrolo[1,2-a][1,5]diazocin-5-yl)carbamoyl)benzo[b]thiophen-5-yl)difluoromethyl)phosphoryl)bis (oxy))bis(methylene) bis(2,2-dimethylpropanoate)] | ≤ 100 | ≤ 100
